Laboratory results as given in ChEMBL document CHEMBL4680211, “Synthesis and structure-activity relationship study of water-soluble carbazole sulfonamide derivatives as new anticancer agents” (Eur J Med Chem, 2020).

What was measured:
HepG2 [1] = test: Antiproliferative activity against human HepG2 cells measured after 48 hrs by SRB assay; type: functional, cell-based; conditions: Homo sapiens, HepG2, 48 h
Bel-7402 = test: Antiproliferative activity against human Bel-7402 cells measured after 48 hrs by SRB assay; type: functional, cell-based; conditions: Homo sapiens, Bel-7402, 48 h
MCF7 = test: Antiproliferative activity against human MCF7 cells measured after 48 hrs by SRB assay; type: functional, cell-based; conditions: Homo sapiens, MCF7, 48 h
[2] = Acute toxicity in Kunming mouse assessed as survival at 100 mg/kg, iv measured for 7 days relative to control; type: organism-based; conditions: in vivo, time 7 day
[3] = Acute toxicity in Kunming mouse assessed as survival at 50 mg/kg, iv measured for 7 days relative to control; type: organism-based; conditions: in vivo, time 7 day
[4] = Acute toxicity in Kunming mouse assessed as survival at 25 mg/kg, iv measured for 7 days relative to control; type: organism-based; conditions: in vivo, time 7 day
[5] = Acute toxicity in Kunming mouse assessed as survival at 200 mg/kg, iv measured for 7 days relative to control; type: organism-based; conditions: in vivo, time 7 day
[6] = Acute toxicity in iv dosed Kunming mouse measured for 7 days; type: organism-based; conditions: in vivo, time 7 day
HepG2 [7] = test: Antitumor activity against human HepG2 cells xenografted in BALB/c nude mouse assessed as tumor volume at 10 mg/kg, iv qod for 14 to 29 days measured on day 1 (reference value: 154.04 +/- 3120); type: functional; conditions: time 14-29 day
HepG2 [8] = test: Antitumor activity against human HepG2 cells xenografted in BALB/c nude mouse assessed as tumor volume at 10 mg/kg, iv qod for 14 to 29 days measured on day 29 (reference value: 2,838.93 +/- 737.40); type: functional; conditions: time 14-29 day
HepG2 [9] = test: Antitumor activity against human HepG2 cells xenografted in BALB/c nude mouse assessed as tumor growth inhibition at 10 mg/kg, iv qod for 14 to 29 days relative to control; type: functional; conditions: time 14-29 day, read-out: TGI
[10] = Toxicity in human HepG2 cells xenografted BALB/c nude mouse assessed as change in tumor weight at 10 mg/kg, iv qod for 14 to 29 days (reference value: 4.52 g); type: organism-based; conditions: in vivo, time 14-29 day
[11] = Acute toxicity in po dosed Kunming mouse measured for 7 days; type: organism-based; conditions: in vivo, time 7 day
HepG2 [12] = test: Antitumor activity against human HepG2 cells xenografted in BALB/c nude mouse assessed as reduction in tumor volume at 50 mg/kg administered for 29 days by caliper method relative to control; type: functional; set-up: scale not given: the % may be the effect or the level left; conditions: time 29 day
HepG2 [13] = test: Antitumor activity against human HepG2 cells xenografted in BALB/c nude mouse assessed as reduction in tumor volume at 100 mg/kg administered for 29 days by caliper method relative to control; type: functional; set-up: scale not given: the % may be the effect or the level left; conditions: time 29 day
[14] = Toxicity in human HepG2 cells xenografted BALB/c nude mouse assessed as change in tumor weight at 50 to 100 mg/kg for 29 days; type: organism-based; conditions: in vivo, 696 h, dose 50-100 mg/kg, time 29 day
[15] = Acute toxicity in ip dosed Kunming mouse measured for 7 days; type: organism-based; conditions: in vivo, time 7 day
HepG2 [16] = test: Antitumor activity against human HepG2 cells xenografted in BALB/c nude mouse assessed as tumor growth inhibition at 25 mg/kg, ip qod for 29 days by caliper method relative to control; type: functional; conditions: 696 h, time 29 day, read-out: TGI
[17] = Elimination half life in Sprague-Dawley rat at 2.5 mg/kg, iv; type: ADME, organism-based; conditions: in vivo, read-out: beta t1/2 (converted)
[18] = Volume of distribution at steady state in Sprague-Dawley rat at 2.5 mg/kg, iv; type: ADME, organism-based; conditions: in vivo, read-out: Vdss
[19] = AUC (0 to last) in Sprague-Dawley rat at 2.5 mg/kg, iv; type: ADME, organism-based; set-up: time 0 - last, route intravenous, dose 2.5 mg/kg; conditions: in vivo
[20] = MRT (0 to last) in Sprague-Dawley rat at 2.5 mg/kg, iv; type: ADME, organism-based; conditions: in vivo
MDA-MB-231 = test: Antitumor activity against human MDA-MB-231 cells xenografted in BALB/c nude mouse assessed as reduction in tumor burden at 60 mg/kg, ip biw for 14 to 29 days relative to control; type: functional; set-up: scale not given: the % may be the effect or the level left; conditions: time 14-29 day
[21] = Toxicity in human MDA-MB-231 cells xenografted BALB/c nude mouse assessed as effect on body weight at 60 mg/kg, ip biw for 14 to 29 days measured every two days during compound dosing; type: organism-based; conditions: in vivo, time 14-29 day
HepG2 [22] = test: Antitumor activity against GFP-labelled human HepG2 cells xenografted in BALB/c nude mouse assessed as tumor growth inhibition at 10 mg/kg, iv administered once per week for 29 days relative to control; type: functional; conditions: 696 h, time 29 day, read-out: TGI
[23] = Toxicity in GFP-labelled human HepG2 cells xenografted BALB/c nude mouse assessed as change in animal weight at 10 mg/kg, iv administered once per week for 29 days; type: organism-based; conditions: in vivo, 696 h, time 29 day
HepG2 [24] = test: Antitumor activity against human HepG2 cells xenografted in BALB/c nude mouse assessed as tumor growth inhibition at 10 mg/kg, iv administered once per week for 29 days by caliper method relative to control; type: functional; set-up: scale not given: the % may be the effect or the level left; conditions: time 29 day
[25] = Acute toxicity in Kunming mouse assessed as survival at 75 mg/kg, iv measured for 7 days relative to control; type: organism-based; conditions: in vivo, time 7 day
[26] = Acute toxicity in Kunming mouse assessed as survival at 80 mg/kg, iv measured for 7 days relative to control; type: organism-based; conditions: in vivo, time 7 day
[27] = Acute toxicity in Kunming mouse assessed as survival at 60 mg/kg, iv measured for 7 days relative to control; type: organism-based; conditions: in vivo, time 7 day
[28] = Acute toxicity in Kunming mouse assessed as survival at 40 mg/kg, iv measured for 7 days relative to control; type: organism-based; conditions: in vivo, time 7 day
HepG2 [29] = test: Antitumor activity against human HepG2 cells xenografted in BALB/c nude mouse assessed as tumor growth inhibition at 5 mg/kg, iv qod for 14 to 29 days relative to control; type: functional; conditions: time 14-29 day, read-out: TGI
HepG2 [30] = test: Antitumor activity against GFP-labelled human HepG2 cells xenografted in BALB/c nude mouse assessed as tumor growth inhibition at 10 mg/kg, iv qod for 29 days relative to control; type: functional; conditions: 696 h, time 29 day, read-out: TGI
[31] = Toxicity in GFP-labelled human HepG2 cells xenografted BALB/c nude mouse assessed as change in animal weight at 10 mg/kg, iv qod for 29 days; type: organism-based; conditions: in vivo, 696 h, time 29 day
[32] = Cmax in Sprague-Dawley rat assessed as N-(2,6-dimethoxypyridin-3-yl)-7-hydroxy-9-methyl-9H-carbazole-3-sulfonamide level at 2.5 mg/kg, iv; type: ADME, organism-based; set-up: route intravenous, dose 2.5 mg/kg; conditions: in vivo
[33] = Tmax in Sprague-Dawley rat assessed as N-(2,6-dimethoxypyridin-3-yl)-7-hydroxy-9-methyl-9H-carbazole-3-sulfonamide level at 2.5 mg/kg, iv; type: ADME, organism-based; conditions: in vivo
[34] = Terminal half life in Sprague-Dawley rat assessed as N-(2,6-dimethoxypyridin-3-yl)-7-hydroxy-9-methyl-9H-carbazole-3-sulfonamide level at 2.5 mg/kg, iv; type: ADME, organism-based; conditions: in vivo
[35] = AUC (0 to last) in Sprague-Dawley rat assessed as N-(2,6-dimethoxypyridin-3-yl)-7-hydroxy-9-methyl-9H-carbazole-3-sulfonamide level at 2.5 mg/kg, iv; type: ADME, organism-based; set-up: route intravenous, time 0 - last, dose 2.5 mg/kg; conditions: in vivo
[36] = MRT (0 to last) in Sprague-Dawley rat assessed as N-(2,6-dimethoxypyridin-3-yl)-7-hydroxy-9-methyl-9H-carbazole-3-sulfonamide level at 2.5 mg/kg, iv; type: ADME, organism-based; conditions: in vivo
HepG2 [37] = test: Antitumor activity against human HepG2 cells xenografted in BALB/c nude mouse assessed as tumor growth inhibition at 50 mg/kg, iv qod for 14 to 29 days relative to control; type: functional; conditions: time 14-29 day, read-out: TGI

| Compound | IC50 (HepG2 [1]) [nM] | IC50 (Bel-7402) [nM] | IC50 (MCF7) [nM] | survival at 168 h [2] [%] | LD50 at 168 h [6] [mg/kg] | Activity (HepG2 [7]) [mm3] | Activity (HepG2 [8]) [mm3] | inhibition in vivo at 10 mg/kg (HepG2 [9]) [%] | Activity [10] [g] | further results |
| --- | --- | --- | --- | --- | --- | --- | --- | --- | --- | --- |
| COc1ccc(N(CCN2CCC(N3CCCC3)CC2)S(=O)(=O)c2ccc3c(c2)c2ccccc2n3C)c(OC)n1 | 3370 | 7810 | 21000 | 16.7 | 70.7 | 85.64 | 1237.34 | 51.5 | 1.72 | survival at 168 h [3]: 83.3%; survival at 168 h [4]: 100%; survival at 168 h [5]: 0% |
| COc1ccc(N(CCOP(=O)([O-])[O-])S(=O)(=O)c2ccc3c(c2)c2ccccc2n3C)c(OC)n1.[Na+].[Na+] | 1120 | 1970 | 1080 |  |  |  |  |  |  | LD50 at 168 h [11]: 273 mg/kg; Activity (HepG2 [12]): 54.5%; Activity (HepG2 [13]): 70.1%; Activity [14]: Non-Toxic |
| COc1ccc(NS(=O)(=O)c2ccc3c(c2)c2ccc(OP(=O)([O-])[O-])cc2n3C)c(OC)n1.[Na+].[Na+] | 19 | 60 | 16 |  |  |  |  |  |  | LD50 at 168 h [15]: 273 mg/kg; inhibition in vivo at 25 mg/kg (HepG2 [16]): 71.7%; half-life [17]: 43.2 min; Vd [18]: 0.24 L/kg; AUClast [19]: 18449 ng·h/mL; MRT last [20]: 10.2 min |
| CC(=O)O[C@H]1C(=O)[C@@]2(C)[C@H]([C@H](OC(=O)c3ccccc3)[C@]3(O)C[C@H](OC(=O)[C@H](O)[C@@H](NC(=O)c4ccccc4)c4ccccc4)C(C)=C1C3(C)C)[C@]1(OC(C)=O)CO[C@@H]1C[C@@H]2O [PACLITAXEL] |  |  |  |  |  |  |  |  |  | Activity (MDA-MB-231): 36%; Activity [21]: Non-Toxic; inhibition in vivo at 10 mg/kg (HepG2 [22]): 99.4%; Activity [23]: Non-Toxic; Activity (HepG2 [24]): 59.6% |
| COc1ccc(N(CCN(C)C)S(=O)(=O)c2ccc3c(c2)c2ccccc2n3C)c(OC)n1 | 1460 | 5320 | 5330 | 0 | 71.9 | 90.79 | 1322.82 | 52.8 | 0.87 | survival at 168 h [25]: 66.7%; survival at 168 h [3]: 83.3%; survival at 168 h [4]: 100% |
| COc1ccc(N(CCN2CCN(C)CC2)S(=O)(=O)c2ccc3c(c2)c2ccccc2n3C)c(OC)n1 | 4130 | 6060 | 15000 | 16.7 | 89.5 | 92.29 | 914.19 | 48.3 | 1.44 | survival at 168 h [26]: 83.3%; survival at 168 h [27]: 100%; survival at 168 h [28]: 100%; inhibition in vivo at 5 mg/kg (HepG2 [29]): 33.3%; inhibition in vivo at 10 mg/kg (HepG2 [30]): 60.2%; Activity [31]: Non-Toxic |
| COc1ccc(NS(=O)(=O)c2ccc3c(c2)c2ccc(O)cc2n3C)c(OC)n1 | 12 | 56 | 14 |  |  |  |  |  |  | Cmax [32]: 22333 ng/mL; Tmax [33]: 5 min; beta t1/2 [34]: 108 min; AUClast [35]: 15295 ng·h/mL; MRTlast [36]: 76.2 min |
| COc1ccc(/C=C\c2cc(OC)c(OC)c(OC)c2)cc1OP(=O)(O)O [FOSBRETABULIN DISODIUM] | 2 | 40 | 11 |  |  |  |  |  |  | inhibition in vivo at 50 mg/kg (HepG2 [37]): 45.8% |
